The target of the experiment is T1, ADRA2A (Homo sapiens, UniProt P08913).
T1 sequence (P08913 1-465): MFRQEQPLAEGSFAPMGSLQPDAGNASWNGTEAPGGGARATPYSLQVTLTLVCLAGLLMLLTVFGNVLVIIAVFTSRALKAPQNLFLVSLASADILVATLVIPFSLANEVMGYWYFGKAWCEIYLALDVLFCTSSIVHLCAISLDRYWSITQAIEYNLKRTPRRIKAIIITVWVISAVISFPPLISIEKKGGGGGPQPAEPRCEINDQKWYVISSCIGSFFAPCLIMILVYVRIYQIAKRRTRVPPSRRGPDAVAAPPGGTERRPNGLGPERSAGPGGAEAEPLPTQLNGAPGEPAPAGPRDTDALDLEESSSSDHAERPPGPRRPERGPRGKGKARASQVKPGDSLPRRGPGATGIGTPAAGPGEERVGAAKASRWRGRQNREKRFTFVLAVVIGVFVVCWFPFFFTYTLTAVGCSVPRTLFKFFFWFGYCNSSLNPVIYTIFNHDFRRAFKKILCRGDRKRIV
Kind of experiment: cell-based.

In general, IC50 refers to the concentration needed to halve the response being measured. A low value points to higher potency. On to `COC(=O)C1=CO[C@@H](C)[C@@H]2Cn3ccc4c5ccccc5nc-4c3C[C@H]12` [1a, alstonine], for which the IC50 stood at 59 µM.
